Where two headings read alike, the source gives them in different places.
Key:
[1] = test system: PAO1 TnoprD producing NDM-1; experiment: MIC and checkerboard by broth microdilution, recombinant strain; format: cell-based, Pseudomonas aeruginosa; conditions: NDM-1 TnoprD; antibiotic alone
Procedure: (§1) The fractional inhibitory concentration index (FICI) was calculated and interpreted as follows: the MIC of drug A in combination/the MIC of drug A alone + the MIC of drug B in combination/the MIC drug B alone. FICI ≤ 0.5 = synergy; 0.5 < FICI ≤ 1 = additive; FICI 1 < FICI < 2 = indifference, and FICI ≥ 2 = antagonism. All susceptibility testing/checkerboard assays were performed in triplicate.

[2] = test system: PAO1 TnoprD producing KPC-2; format: cell-based, Pseudomonas aeruginosa; conditions: KPC-2 TnoprD; antibiotic alone
Procedure: as §1

[3] = test system: PAO1 producing KPC-2; format: cell-based, Pseudomonas aeruginosa; conditions: antibiotic alone
Procedure: as §1

[4] = test system: PAO1 producing VIM-1; experiment: MIC and checkerboard by broth microdilution, recombinant strain; format: cell-based, Pseudomonas aeruginosa; conditions: antibiotic alone
Source text: (§2) Pseudomonas aeruginosa isolate, PAO1, was used alongside its isogenic counterpart, PAO1 TnoprD, which lacks a functional OprD porin (Held et al. [2012]). β-lactamases, blaIMP-1, blaIMP-10, blaIMP-13, blaNDM-1, blaSPM-1, blaVIM-1, blaVIM-2, and blaKPC-2, had previously been cloned into the pUCP24 shuttle vector (Bouvier et al. [2025]), and were transformed by electroporation into both PAO1 and PAO1 TnoprD.
as §1, with “. MICs of DMSA, CAZ, FEP and checkerboards for the combinations, CAZ/DMSA and FEP/DMSA, were performed for all clinical isolates. All susceptibility testing results were interpreted according to CLSI guidelines (CLSI [2023]). The” for “The”

[5] = test system: PAO1 producing IMP-13; experiment: as above; format: cell-based, Pseudomonas aeruginosa; conditions: antibiotic alone
Source text: as §2
as §1, with “. MICs of DMSA, CAZ, FEP and checkerboards for the combinations, CAZ/DMSA and FEP/DMSA, were performed for all clinical isolates. All susceptibility testing results were interpreted according to CLSI guidelines (CLSI [2023]). The” for “The”

[6] = test system: PAO1 TnoprD producing SPM-1; experiment: as above; format: cell-based, Pseudomonas aeruginosa; conditions: SPM-1 TnoprD; antibiotic alone
Source text: as §2
as §1, with “. MICs of DMSA, CAZ, FEP and checkerboards for the combinations, CAZ/DMSA and FEP/DMSA, were performed for all clinical isolates. All susceptibility testing results were interpreted according to CLSI guidelines (CLSI [2023]). The” for “The”

[7] = test system: PAO1 producing SPM-1; experiment: as above; format: cell-based, Pseudomonas aeruginosa; conditions: antibiotic alone
Source text: as §2
as §1, with “. MICs of DMSA, CAZ, FEP and checkerboards for the combinations, CAZ/DMSA and FEP/DMSA, were performed for all clinical isolates. All susceptibility testing results were interpreted according to CLSI guidelines (CLSI [2023]). The” for “The”

[8] = test system: PAO1 TnoprD producing VIM-2; experiment: as above; format: cell-based, Pseudomonas aeruginosa; conditions: VIM-2 TnoprD; antibiotic alone
Source text: as §2
as §1, with “. MICs of DMSA, CAZ, FEP and checkerboards for the combinations, CAZ/DMSA and FEP/DMSA, were performed for all clinical isolates. All susceptibility testing results were interpreted according to CLSI guidelines (CLSI [2023]). The” for “The”

[9] = test system: PAO1 TnoprD producing IMP-10; experiment: as above; format: cell-based, Pseudomonas aeruginosa; conditions: IMP-10 TnoprD; antibiotic alone
Source text: as §2
as §1, with “. MICs of DMSA, CAZ, FEP and checkerboards for the combinations, CAZ/DMSA and FEP/DMSA, were performed for all clinical isolates. All susceptibility testing results were interpreted according to CLSI guidelines (CLSI [2023]). The” for “The”

[10] = test system: PAO1 TnoprD producing IMP-13; experiment: as above; format: cell-based, Pseudomonas aeruginosa; conditions: IMP-13 TnoprD; antibiotic alone
Source text: as §2
as §1, with “. MICs of DMSA, CAZ, FEP and checkerboards for the combinations, CAZ/DMSA and FEP/DMSA, were performed for all clinical isolates. All susceptibility testing results were interpreted according to CLSI guidelines (CLSI [2023]). The” for “The”

[11] = test system: PAO1 producing IMP-1; experiment: as above; format: cell-based, Pseudomonas aeruginosa; conditions: antibiotic alone
Source text: as §2
as §1, with “. MICs of DMSA, CAZ, FEP and checkerboards for the combinations, CAZ/DMSA and FEP/DMSA, were performed for all clinical isolates. All susceptibility testing results were interpreted according to CLSI guidelines (CLSI [2023]). The” for “The”

[12] = test system: PAO1 producing VIM-2; experiment: as above; format: cell-based, Pseudomonas aeruginosa; conditions: antibiotic alone
Source text: as §2
as §1, with “. MICs of DMSA, CAZ, FEP and checkerboards for the combinations, CAZ/DMSA and FEP/DMSA, were performed for all clinical isolates. All susceptibility testing results were interpreted according to CLSI guidelines (CLSI [2023]). The” for “The”

[13] = test system: PAO1 and PAO1 TnoprD producing one of eight different carbapenemases; experiment: MIC and checkerboard, isogenic strains as a group; format: cell-based, Pseudomonas aeruginosa
Source text: as §2
as §1, with “. MICs of DMSA, CAZ, FEP and checkerboards for the combinations, CAZ/DMSA and FEP/DMSA, were performed for all clinical isolates. All susceptibility testing results were interpreted according to CLSI guidelines (CLSI [2023]). The” for “The”

[14] = test system: PAO1 TnoprD producing IMP-1; experiment: MIC and checkerboard by broth microdilution, recombinant strain; format: cell-based, Pseudomonas aeruginosa; conditions: IMP-1 TnoprD; antibiotic alone
Procedure: as §1

[15] = test system: PAO1 producing IMP-10; experiment: as above; format: cell-based, Pseudomonas aeruginosa; conditions: antibiotic alone
Procedure: as §1

[16] = test system: PAO1 producing NDM-1; experiment: as above; format: cell-based, Pseudomonas aeruginosa; conditions: antibiotic alone
Procedure: as §1

[17] = test system: IMP-producers; design: method as in Hamrick et al. 2020, Le Terrier et al. 2024; conditions: ref Hamrick et al. 2020, Le Terrier et al. 2024; cited from earlier work
[18] = molecular target: VIM-2 (Escherichia coli, UniProt Q5U7L7); experiment: IC50, inhibition of cephalothin hydrolysis by crude extract
[19] = molecular target: IMP-13 (Pseudomonas aeruginosa, UniProt Q7WYA8); experiment: as above
IMP-13, sequence (Q7WYA8 21-246): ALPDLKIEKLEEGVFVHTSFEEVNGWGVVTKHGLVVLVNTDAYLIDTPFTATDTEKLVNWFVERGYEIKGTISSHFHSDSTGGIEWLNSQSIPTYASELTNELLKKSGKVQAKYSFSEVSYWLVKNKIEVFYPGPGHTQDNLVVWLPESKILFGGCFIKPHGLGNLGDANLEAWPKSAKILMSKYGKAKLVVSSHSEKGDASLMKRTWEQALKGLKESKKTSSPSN

[20] = molecular target: T1, IMP-10 (Serratia marcescens, UniProt P52699, V49F); experiment: as above
T1 sequence (P52699 19-246 V49F): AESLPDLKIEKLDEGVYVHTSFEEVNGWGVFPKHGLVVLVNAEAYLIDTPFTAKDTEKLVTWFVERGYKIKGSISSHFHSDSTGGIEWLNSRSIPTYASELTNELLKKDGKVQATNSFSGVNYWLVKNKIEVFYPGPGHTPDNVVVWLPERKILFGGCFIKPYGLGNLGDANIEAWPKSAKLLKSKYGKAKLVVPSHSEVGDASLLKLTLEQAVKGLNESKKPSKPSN

[21] = molecular target: IMP-1 (Serratia marcescens, UniProt P52699); experiment: as above
IMP-1, sequence (P52699 19-246 limits assumed): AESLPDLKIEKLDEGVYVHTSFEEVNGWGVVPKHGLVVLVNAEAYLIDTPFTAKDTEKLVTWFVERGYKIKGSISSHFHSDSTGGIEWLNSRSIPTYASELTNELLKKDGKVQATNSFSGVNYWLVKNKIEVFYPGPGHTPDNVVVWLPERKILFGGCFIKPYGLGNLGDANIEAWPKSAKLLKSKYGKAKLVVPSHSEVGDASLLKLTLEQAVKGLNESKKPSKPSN

[22] = molecular target: VIM-1 (Pseudomonas aeruginosa, UniProt A0A0F7KYQ8); experiment: as above
[23] = molecular target: SPM-1 (Pseudomonas aeruginosa, UniProt Q8G9Q0); experiment: as above
SPM-1, sequence (Q8G9Q0 entry or part of it): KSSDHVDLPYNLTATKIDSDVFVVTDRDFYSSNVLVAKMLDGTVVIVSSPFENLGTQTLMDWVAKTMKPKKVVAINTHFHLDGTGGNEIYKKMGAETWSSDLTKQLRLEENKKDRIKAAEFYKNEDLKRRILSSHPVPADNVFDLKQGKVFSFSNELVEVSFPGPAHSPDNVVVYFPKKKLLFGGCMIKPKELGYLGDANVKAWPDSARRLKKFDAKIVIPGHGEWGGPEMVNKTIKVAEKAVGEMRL

[24] = test system: PAO1 TnoprD producing VIM-1; experiment: MIC and checkerboard by broth microdilution, recombinant strain; format: cell-based, Pseudomonas aeruginosa; conditions: VIM-1 TnoprD; antibiotic alone
Procedure: as §1

[25] = molecular target: T1, IMP-10; conditions: ref Le Terrier et al. 2024; cited from earlier work

## C[C@@H](O)[C@H]1C(=O)N2C(C(=O)O)=C(S[C@@H]3CN[C@H](C(=O)N(C)C)C3)[C@H](C)[C@H]12 [MEM, meropenem]
[1]
  MIC: 256 mg/L
[2]
  MIC: 512 mg/L
[3]
  MIC: 256 mg/L
[4]
  MIC: 64 mg/L
[5]
  MIC: 4 mg/L
[6]
  MIC: 64 mg/L
[7]
  MIC: 32 mg/L
[8]
  MIC: 8 mg/L
[9]
  MIC: 256 mg/L
[10]
  MIC: 8 mg/L
[11]
  MIC: 64 mg/L
[12]
  MIC: 4 mg/L
[13]; SPM-1 strains, DMSA 200 and 300 mg/l
  interaction with DMSA as indicated by the FICIs: synergy (FICI ≤ 0.5 = synergy)
[13]; strains producing IMP-1, IMP-10 or IMP-13, with and without functional OprD, DMSA 200 and 300 mg/l
  interaction with DMSA as indicated by the FICIs: synergy (FICI ≤ 0.5 = synergy)

## C[C@@H](O)[C@H]1C(=O)N2C(C(=O)O)=C(SCCN=CN)C[C@H]12 [IPM, imipenem]
[14]
  MIC: 64 mg/L
[15]
  MIC: 8 mg/L
[16]
  MIC: 32 mg/L
[2]
  MIC: 512 mg/L
[4]
  MIC: 64 mg/L
[5]
  MIC: 1 mg/L
[6]
  MIC: 16 mg/L
[7]
  MIC: 2 mg/L
[8]
  MIC: 32 mg/L
[9]
  MIC: 64 mg/L
[10]
  MIC: 8 mg/L
[11]
  MIC: 16 mg/L
[12]
  MIC: 4 mg/L

## NCCN[C@H]1CC[C@H](CC(=O)N[C@H]2Cc3cccc(C(=O)O)c3OB2O)CC1 [TAN, taniborbactam]
[17]
  activity against IMP-producers: poor activity
[18]; VIM-2, 100 μM cephalothin, pH 7.0
  IC50: 0.5 µM
[19]; IMP-13, 100 μM cephalothin, pH 7.0
  IC50: > 1000 µM
[20]; IMP-10, 100 μM cephalothin, pH 7.0
  IC50: > 1000 µM
[21]; IMP-1, 100 μM cephalothin, pH 7.0
  IC50: > 1000 µM
[22]; VIM-1, 100 μM cephalothin, pH 7.0
  IC50: 0.8 µM
[23]; SPM-1, 100 μM cephalothin, pH 7.0
  IC50: 2.7 µM

## CO/N=C(\C(=O)N[C@@H]1C(=O)N2C(C(=O)[O-])=C(C[N+]3(C)CCCC3)CS[C@H]12)c1csc(N)n1 [FEP, cefepime]
[1]
  MIC: 256 mg/L
[14]
  MIC: 512 mg/L
[24]
  MIC: 512 mg/L
[15]
  MIC: 256 mg/L
[16]
  MIC: 256 mg/L
[2]
  MIC: 512 mg/L
[3]
  MIC: 512 mg/L
[4]
  MIC: 512 mg/L
[5]
  MIC: 16 mg/L
[6]
  MIC: 64 mg/L
[7]
  MIC: 64 mg/L
[8]
  MIC: 2 mg/L
[9]
  MIC: 256 mg/L
[10]
  MIC: 16 mg/L
[11]
  MIC: 512 mg/L
[12]
  MIC: 2 mg/L
[13]; strains producing IMP-1, IMP-10 or IMP-13, with and without functional OprD, all three DMSA concentrations (100, 200, 300 mg/l)
  interaction with DMSA as indicated by the FICIs: synergy (FICI ≤ 0.5 = synergy)

## O=C(O)c1c(F)ccc2c1OB(O)[C@@H]1C[C@H]21 [XER, xeruborbactam]
[18]
  IC50: 0.1 µM
[19]
  IC50: 3.6 µM
[20]
  IC50: 73 µM
[25]
  activity against IMP-10: limited activity
[21]
  IC50: 2.7 µM
[22]
  IC50: 0.5 µM
[23]
  IC50: > 1000 µM

From PMC12147714 (FEMS Microbiology Letters, 2025)
